Measurements: US12662498B2 (priority 2017, dated 2026)

Legend:
[1] = ICH stability study of psilocybin batches (appearance, water content, purity, assay); conditions: 2-8° C., 25° C./60% RH and 40° C./75% RH
Hygroscopicity = type: physicochemical; conditions: high humidity / added to water
Text: (§1) The psilocybin of the invention in the form Polymorph A or A′ has the general properties illustrated in Table 5 below: […]

Solubility in water = type: physicochemical
Text: as §1

[2] = Heat cycling slurry maturation of Psilocybin Pattern A in 24 solvents (visual solubility)
[3] = Heat cycling slurry maturation of amorphous Psilocybin (visual solubility, form fate); type: physicochemical; conditions: for Obs. at 20° C. / Obs. at 45° C. / Obs. at 50° C.: 20 vol.; for Obs. at 45° C.: 45° C. for 18 hours; for Obs. at 50° C.: 50° C. for 8 hours; for XRPD Data (form fate): solid isolated after heat cycling slurry maturation
Procedure: In order to generate amorphous material a small sample of Psilocybin (0.5 g) was dissolved in water (0.5 L, 1000 vol.), polish filtered and lyophilised. Psilocybin was recovered as an off white fibrous material (lot MC1368A; 412 mg, 82%, XRPD amorphous).
To assess visually solubility of the amorphous API and to induce form modification, a series of slurry maturations were performed as follows:
Psilocybin (15 mg) was charged to tubes. Solvent was then added at ambient temperature (20° C., 0.3 ml, 20 vol.) and the suspensions agitated. Observations were made. After 1 hour of stirring, samples were heated to 45° C. for 18 hours and observations made. Samples were heated to 50° C. for 8 hours and observations were made. The samples were agitated for 72 hours at 25° C. and subject to a final heat cycle, prior to isolation.

CN(C)CCc1c[nH]c2cccc(OP(=O)(O)O)c12 [Psilocybin, 3-[2-(dimethylazaniumyl) Ethyl]-1H-indol-4-yl Hydrogen Phosphate]
chemically stable: chemical stability over the first 12 months of the ICH stability study [1]
~15 mg/mL: solubility (Solubility in water)
Psilocybin forms Hydrate A at high: Hygroscopicity (Hygroscopicity)
largely insoluble: solubility in the solvents and solvent mixtures tested ([2]; 30 volumes at 50° C.)
did solubilise: solubility in water ([2]; Water, 50° C.)

CN(C)CCc1c[nH]c2cccc(OP(=O)(O)O)c12 [amorphous Psilocybin]
Pattern B: XRPD Data (form fate) ([3]; Chlorobutane) | XRPD Data (form fate) ([3]; IPA) | XRPD Data (form fate) ([3]; Nitromethane)
Amorphous: XRPD Data (form fate) ([3]; Acetonitrile)
Semi-crystalline: XRPD Data (form fate) ([3]; Anisole) | XRPD Data (form fate) ([3]; Benzotrifluoride) | XRPD Data (form fate) ([3]; CPME) | XRPD Data (form fate) ([3]; Chlorobenzene) | XRPD Data (form fate) ([3]; Cyclohexane) | XRPD Data (form fate) ([3]; EtOAc) | XRPD Data (form fate) ([3]; Heptane) | XRPD Data (form fate) ([3]; MEK) | XRPD Data (form fate) ([3]; MIBK) | XRPD Data (form fate) ([3]; MeOH) | XRPD Data (form fate) ([3]; TBME) | XRPD Data (form fate) ([3]; THF) | XRPD Data (form fate) ([3]; iPrOAc)
Susp: Obs. at 20° C. ([3]; TBME)
Pattern D: XRPD Data (form fate) ([3]; EtOH)
Susp.: Obs. at 20° C. ([3]; 4:1 EtOH/water) | Obs. at 45° C. ([3]; 4:1 EtOH/water) | Obs. at 50° C. ([3]; 4:1 EtOH/water) | Obs. at 20° C. ([3]; 4:1 IPA/water) | Obs. at 45° C. ([3]; 4:1 IPA/water) | Obs. at 50° C. ([3]; 4:1 IPA/water) | Obs. at 20° C. ([3]; 4:1 THF/water) | Obs. at 45° C. ([3]; 4:1 THF/water) | Obs. at 50° C. ([3]; 4:1 THF/water) | Obs. at 20° C. ([3]; Acetonitrile) | Obs. at 45° C. ([3]; Acetonitrile) | Obs. at 50° C. ([3]; Acetonitrile) | Obs. at 20° C. ([3]; Anisole) | Obs. at 45° C. ([3]; Anisole) | Obs. at 50° C. ([3]; Anisole) | Obs. at 20° C. ([3]; Benzotrifluoride) | Obs. at 45° C. ([3]; Benzotrifluoride) | Obs. at 50° C. ([3]; Benzotrifluoride) | Obs. at 20° C. ([3]; CPME) | Obs. at 45° C. ([3]; CPME) | Obs. at 50° C. ([3]; CPME) | Obs. at 20° C. ([3]; Chlorobenzene) | Obs. at 45° C. ([3]; Chlorobenzene) | Obs. at 50° C. ([3]; Chlorobenzene) | Obs. at 20° C. ([3]; Chlorobutane) | Obs. at 45° C. ([3]; Chlorobutane) | Obs. at 50° C. ([3]; Chlorobutane) | Obs. at 20° C. ([3]; Chloroform) | Obs. at 45° C. ([3]; Chloroform) | Obs. at 50° C. ([3]; Chloroform) | Obs. at 20° C. ([3]; Cyclohexane) | Obs. at 45° C. ([3]; Cyclohexane) | Obs. at 50° C. ([3]; Cyclohexane) | Obs. at 20° C. ([3]; EtOAc) | Obs. at 45° C. ([3]; EtOAc) | Obs. at 50° C. ([3]; EtOAc) | Obs. at 20° C. ([3]; EtOH) | Obs. at 45° C. ([3]; EtOH) | Obs. at 50° C. ([3]; EtOH) | Obs. at 20° C. ([3]; Heptane) | Obs. at 45° C. ([3]; Heptane) | Obs. at 50° C. ([3]; Heptane) | Obs. at 20° C. ([3]; IPA) | Obs. at 45° C. ([3]; IPA) | Obs. at 50° C. ([3]; IPA) | Obs. at 20° C. ([3]; MEK) | Obs. at 45° C. ([3]; MEK) | Obs. at 50° C. ([3]; MEK) | Obs. at 20° C. ([3]; MIBK) | Obs. at 45° C. ([3]; MIBK) | Obs. at 50° C. ([3]; MIBK) | Obs. at 20° C. ([3]; MeOH) | Obs. at 45° C. ([3]; MeOH) | Obs. at 50° C. ([3]; MeOH) | Obs. at 20° C. ([3]; Nitromethane) | Obs. at 45° C. ([3]; Nitromethane) | Obs. at 50° C. ([3]; Nitromethane) | Obs. at 45° C. ([3]; TBME) | Obs. at 50° C. ([3]; TBME) | Obs. at 20° C. ([3]; THF) | Obs. at 45° C. ([3]; THF) | Obs. at 50° C. ([3]; THF) | Obs. at 20° C. ([3]; Toluene) | Obs. at 45° C. ([3]; Toluene) | Obs. at 50° C. ([3]; Toluene) | Obs. at 20° C. ([3]; Water) | Obs. at 45° C. ([3]; Water) | Obs. at 50° C. ([3]; Water) | Obs. at 20° C. ([3]; iPrOAc) | Obs. at 45° C. ([3]; iPrOAc) | Obs. at 50° C. ([3]; iPrOAc)
